Reference: paper PMC5196007 (Journal of pharmaceutical and biomedical analysis, 2016)
Where two headings read alike, the source gives them in different places.

How the values were obtained:
[1] = Stability of analytes in whole blood samples; type: in vitro ADME, rat; details: n = 6
[2] = Pharmacokinetic study with co-administration of cocaine and alcohol in rats; type: in vivo, Male Sprague–Darley rats; details: 60 mg/kg cocaine IP, 30 min after 1 g/kg alcohol or saline IP, both groups
[3] = tested on: butyrylcholinesterase (BChE) and liver carboxyesterase-2 (CE-2); details: in humans; cited from earlier work
CE-1 = details: with alcohol co-administration, cited from earlier work
[4] = Bench top (4 hours, room temperature), high concentration 190–320 ng/ml (1 µM)
[5] = Bench top (4 hours, room temperature), low concentration 1.9–3.2 ng/ml (0.01 µM)
[6] = Bench top (4 hours, room temperature), medium concentration 95–160 ng/ml (0.5 µM)
[7] = Freeze-thaw (4 cycles), high concentration 190–320 ng/ml (1 µM)
[8] = Freeze-thaw (4 cycles), low concentration 1.9–3.2 ng/ml (0.01 µM)
[9] = Freeze-thaw (4 cycles), medium concentration 95–160 ng/ml (0.5 µM)
[10] = Long-term (−70°C, 4 months), high concentration 190–320 ng/ml (1 µM)
[11] = Long-term (−70°C, 4 months), low concentration 1.9–3.2 ng/ml (0.01 µM)
[12] = Long-term (−70°C, 4 months), medium concentration 95–160 ng/ml (0.5 µM)

| SMILES | Stability Bias (%) [1, 4] | Stability Bias (%) [1, 5] | Stability Bias (%) [1, 6] | Stability Bias (%) [1, 7] | Stability Bias (%) [1, 8] | Stability Bias (%) [1, 9] | Stability Bias (%) [1, 10] | Stability Bias (%) [1, 11] | Stability Bias (%) [1, 12] | highest blood concentration [2] | time of highest blood concentration after the injection of cocaine [2] | fraction of cocaine hydrolyzed to ecgonine methyl ester (EME) [3] | fraction of cocaine converted to cocaethylene through transesterification (CE-1; intravenous cocaine) | fraction of cocaine converted to cocaethylene through transesterification (CE-1; oral cocaine) | fraction of cocaine converted to cocaethylene through transesterification (CE-1; smoked cocaine) |
| --- | --- | --- | --- | --- | --- | --- | --- | --- | --- | --- | --- | --- | --- | --- | --- |
| CCOC(=O)[C@H]1[C@@H](OC(=O)c2ccccc2)C[C@@H]2CC[C@H]1N2 [Norcocaethylene, norcocaethylene] | −2.2% | −0.2% | −0.9% | −6.4% | 0.1% | −4.4% | 2.8% | −1.0% | −1.3% | – | – | – | – | – | – |
| COC(=O)[C@H]1[C@@H](OC(=O)c2ccccc2)C[C@@H]2CC[C@H]1N2C [Cocaine] | −6.7% | 2.3% | 0.3% | −4.7% | 2.8% | −0.7% | −3.1% | −0.4% | 3.1% | ~ 2400 ng/ml | 20 min | approximately 40% | ~ 24% | ~ 34% | ~ 18% |
| CCOC(=O)[C@H]1[C@@H](O)C[C@@H]2CC[C@H]1N2 [NEEE, norecgonine ethyl ester] | 3.7% | 1.4% | 2.4% | 6.5% | 1.2% | 3.3% | −11.9% | −1.3% | −0.2% | – | – | – | – | – | – |
| COC(=O)[C@H]1[C@@H](OC(=O)c2ccccc2)C[C@@H]2CC[C@H]1N2 [Norcocaine, norcocaine] | 0.6% | −1.1% | 3.5% | −1.2% | −1.0% | −0.2% | −1.4% | −2.9% | 2.2% | – | – | – | – | – | – |
| CCOC(=O)[C@@H]1C2CCC(C[C@@H]1OC(=O)c1ccccc1)N2C (stereo partly drawn) [Cocaethylene, cocaethylene] | 0.2% | 1.7% | −2.1% | −4.1% | 0.7% | −3.7% | −0.6% | 3.7% | −1.8% | – | – | – | – | – | – |
| COC(=O)[C@@H]1[C@H]2CC[C@@H](C[C@@H]1O)N2C [EME, ecgonine methyl ester] | 0.3% | −9.6% | 5.9% | 4.0% | 2.1% | 4.2% | 3.5% | −3.1% | 6.3% | – | – | – | – | – | – |
| CN1[C@H]2CC[C@@H]1[C@@H](C(=O)O)[C@@H](OC(=O)c1ccccc1)C2 [BE, benzoylecgonine] | 1.7% | −0.5% | 0.7% | 3.4% | −0.9% | 5.5% | 3.8% | −1.4% | 2.2% | – | – | – | – | – | – |
| CCOC(=O)[C@@H]1[C@H]2CC[C@@H](C[C@@H]1O)N2C [EEE, ecgonine ethyl ester] | 6.8% | 1.2% | −4.4% | 9.4% | −3.2% | −9.3% | −5.2% | −2.2% | −5.2% | – | – | – | – | – | – |
| COC(=O)[C@H]1[C@@H](O)C[C@@H]2CC[C@H]1N2 [NEME, norecgonine methyl ester] | −2.2% | −14.3% | −1.5% | 0.1% | −12.8% | −5.4% | −8.7% | −13.0% | −1.7% | – | – | – | – | – | – |
